From patent US5696083A, “Personal care composition containing pyrithione and polymyxin” (Olin Corporation, priority 1994, dated 1997)

Key:
Test in all cases: MIC in Tryptic Soy Broth, compounds alone and in mixtures
Format in all cases: cell-based
Fusarium sp. = details: 28° C.
Source text: (§1) ^a Compounds were serially diluted in Tryptic soy Broth (DIFCO),
(§2) ^b Each dilution contained 10^6 bacteria/ml of 10^5 fungi/ml.
(§3) ^a Stock solutions of ZP in dimethylsulfoxide and PB in sterile water

Aureobasidium pullulans = details: 28° C.; for Minimum Inhibitory Concentration, Compound Used Alone: Tryptic Soy Broth
Description: (§4) Determinations of minimum inhibitory concentrations (MIC's) of the two compounds (pyrithione salts and/or polymyxin sulfate) in a nutrient broth (alone and in mixtures) were conducted to evaluate interactions. Stock solutions of pyrithione salts and/or polymyxin salts were diluted in Tryptic Soy Broth (Difco), and the dilutions were inoculated with an equal volume of bacterial culture (10^6 /ml) or fungal spore suspension (10^5 /ml) in Tryptic Soy Broth and incubated at 28° C. for 3-7 days.
(§5) The interactions of the antimicrobials were determined according to accepted procedures (M. C. Berenbaum [Tables 1 and 2] and P. F. Dougherty "Microdilution Transfer Plate Technique for Determining In Vitro Synergy of Antimicrobial Agents", ANTIMICROBIAL AGENTS AND CHEMOTHERAPY, Vol. 11, No. 2, p. 225-228 (Feb. 1977, American Society for Microbiology) [Tables 3 and 4]). The concentration of each agent in the combination that inhibits the organisms is expressed as a fraction of the concentration that causes the same effect when the same agent is tested alone (i.e., its fractional inhibitory concentration, FIC). If the sum of the FIC's is 1, the combination is additive in its antimicrobial effect; if the sum is <1, the combination is synergistic; and if the sum is >1, the combination is antagonistic.
as §1, §2, §3

Pseudomonas rubescens = details: 28° C.; for Minimum Inhibitory Concentration, Compound Used Alone: Tryptic Soy Broth
Description: as §4, §5, §1, §2, §3

Alcaligens faecalis = details: 28° C.; for Minimum Inhibitory Concentration, Compound Used Alone: Tryptic Soy Broth
Description: as §4, §5, §1, §2, §3

Aspergillus niger = details: 28° C.; for Minimum Inhibitory Concentration, Compound Used Alone: Tryptic Soy Broth
Description: as §4, §5, §1, §2, §3

Penicillin pinophilium = details: 28° C.; for Minimum Inhibitory Concentration, Compound Used Alone: Tryptic Soy Broth
Description: as §4, §5, §1, §2, §3

Gliocladium virens = details: 28° C.; for Minimum Inhibitory Concentration, Compound Used Alone: Tryptic Soy Broth
Description: as §4, §5, §1, §2, §3

Pseudomonas oleovorans = details: 28° C.; for Minimum Inhibitory Concentration, Compound Used Alone: Tryptic Soy Broth
Description: as §4, §5, §1, §2, §3

Candida albicans = details: 28° C.; for Minimum Inhibitory Concentration, Compound Used Alone: Tryptic Soy Broth
Description: as §4, §5, §1, §2, §3

Proteus mirabilis = details: 28° C.; for Minimum Inhibitory Concentration, Compound Used Alone: Tryptic Soy Broth
Description: as §4, §5, §1, §2, §3

Pseudomonas fluorescens = details: 28° C.; for Minimum Inhibitory Concentration, Compound Used Alone: Tryptic Soy Broth
Description: as §4, §5, §1, §2, §3

Pseudomonas aeruginosa = details: 28° C.; for Minimum Inhibitory Concentration, Compound Used Alone: Tryptic Soy Broth
Description: as §4, §5, §1, §2, §3

Chaetomium globosium = details: 28° C.; for Minimum Inhibitory Concentration, Compound Used Alone: Tryptic Soy Broth
Description: as §4, §5, §1, §2, §3

Cephalosporium sp. = details: 28° C.; for Minimum Inhibitory Concentration, Compound Used Alone: Tryptic Soy Broth
Description: as §4, §5, §1, §2, §3

[1] = tested on: Trichophyton mentagrophytes; details: 28° C.; for Minimum Inhibitory Concentration, Compound Used Alone: Tryptic Soy Broth
Description: as §4, §5, §1, §2, §3

Fusarium solani = details: 28° C.; for Minimum Inhibitory Concentration, Compound Used Alone: Tryptic Soy Broth
Description: as §4, §5, §1, §2, §3

Pseudomonas Stutzeri = details: 28° C.; for Minimum Inhibitory Concentration, Compound Used Alone: Tryptic Soy Broth
Description: as §4, §5, §1, §2, §3

Citrobacter freundii = details: 28° C.; for Minimum Inhibitory Concentration, Compound Used Alone: Tryptic Soy Broth
Description: as §4, §5, §1, §2, §3

[2] = Table 1, concentration of the component in SP+PB mixture, SP/PB ratio 1, 6-7 days
[3] = Table 1, 6-7 days, PB sulfate 7610 units/mg
[4] = Table 1, concentration of the component in SP+PB mixture, SP/PB ratio 1/20-1/10, 6-7 days
[5] = Table 2, 7 days, PB sulfate 7730 units/mg
[6] = Table 1, 3 days, PB sulfate 7610 units/mg
[7] = Table 1, concentration of the component in SP+PB mixture, SP/PB ratio 650, 3 days
[8] = Table 2, 6 days, PB sulfate 7730 units/mg
[9] = Table 2, concentration of the component in ZP+PB mixture, ZP/PB ratio 1/32-1/8, 7 days
[10] = Table 2, concentration of the component in ZP+PB mixture, ZP/PB ratio 1/8-1, 7 days

Substance: Polymyxin B sulfate [PB]
- Minimum Inhibitory Concentration, Mixture (Fusarium sp.; [2]): 32.0 ppm
- Minimum Inhibitory Concentration, Compound Used Alone (Fusarium sp.; Table 2, alone, Tryptic Soy Broth, 7 days, PB sulfate 7730 units/mg): 106.7 ppm
- Minimum Inhibitory Concentration, Compound Used Alone (Aureobasidium pullulans; [3]): 256.0 ppm
- Minimum Inhibitory Concentration, Mixture (Aureobasidium pullulans; [4]): 48.0 ppm
- Minimum Inhibitory Concentration, Compound Used Alone (Aureobasidium pullulans; [5]): 288.0 ppm
- Minimum Inhibitory Concentration, Mixture (Aureobasidium pullulans; Table 2, concentration of the component in ZP+PB mixture, ZP/PB ratio 1/32-1/16, 7 days): 80.0 ppm
- Minimum Inhibitory Concentration, Compound Used Alone (Pseudomonas rubescens; [6]): < 0.1 ppm
- Minimum Inhibitory Concentration, Mixture (Pseudomonas rubescens; [7]): < 0.1 ppm
- Minimum Inhibitory Concentration, Compound Used Alone (Pseudomonas rubescens; [8]): < 0.1 ppm
- Minimum Inhibitory Concentration, Mixture (Pseudomonas rubescens; Table 2, concentration of the component in ZP+PB mixture, ZP/PB ratio 256, 6 days): < 0.1 ppm
- Minimum Inhibitory Concentration, Compound Used Alone (Alcaligens faecalis; [6]): 1.4 ppm
- Minimum Inhibitory Concentration, Mixture (Alcaligens faecalis; Table 1, concentration of the component in SP+PB mixture, SP/PB ratio 5-41, 3 days): 0.5 ppm
- Minimum Inhibitory Concentration, Compound Used Alone (Alcaligens faecalis; [8]): 3.3 ppm
- Minimum Inhibitory Concentration, Mixture (Alcaligens faecalis; Table 2, concentration of the component in ZP+PB mixture, ZP/PB ratio 8-32, 6 days): 0.6 ppm
- Minimum Inhibitory Concentration, Compound Used Alone (Aspergillus niger; [3]): 1536.0 ppm
- Minimum Inhibitory Concentration, Mixture (Aspergillus niger; Table 1, concentration of the component in SP+PB mixture, SP/PB ratio 1/10, 6-7 days): 256.0 ppm
- Minimum Inhibitory Concentration, Compound Used Alone (Aspergillus niger; [5]): 1024.0 ppm
- Minimum Inhibitory Concentration, Mixture (Aspergillus niger; [9]): 298.7 ppm
- Minimum Inhibitory Concentration, Compound Used Alone (Penicillin pinophilium; [3]): 256.0 ppm
- Minimum Inhibitory Concentration, Mixture (Penicillin pinophilium; [4]): 48.0 ppm
- Minimum Inhibitory Concentration, Compound Used Alone (Penicillin pinophilium; [5]): 128.0 ppm
- Minimum Inhibitory Concentration, Mixture (Penicillin pinophilium; Table 2, concentration of the component in ZP+PB mixture, ZP/PB ratio 1/8, 7 days): 32.0 ppm
- Minimum Inhibitory Concentration, Compound Used Alone (Gliocladium virens; [3]): 74.7 ppm
- Minimum Inhibitory Concentration, Mixture (Gliocladium virens; Table 1, concentration of the component in SP+PB mixture, SP/PB ratio 1/10-1, 6-7 days): 21.3 ppm
- Minimum Inhibitory Concentration, Compound Used Alone (Gliocladium virens; [5]): 64.0 ppm
- Minimum Inhibitory Concentration, Mixture (Gliocladium virens; Table 2, concentration of the component in ZP+PB mixture, ZP/PB ratio 1-2, 7 days): 20.0 ppm
- Minimum Inhibitory Concentration, Compound Used Alone (Pseudomonas oleovorans; [6]): 0.3 ppm
- Minimum Inhibitory Concentration, Mixture (Pseudomonas oleovorans; [7]): < 0.1 ppm
- Minimum Inhibitory Concentration, Compound Used Alone (Pseudomonas oleovorans; [8]): 0.5 ppm
- Minimum Inhibitory Concentration, Mixture (Pseudomonas oleovorans; Table 2, concentration of the component in ZP+PB mixture, ZP/PB ratio 16-32, 6 days): 0.2 ppm
- Minimum Inhibitory Concentration, Compound Used Alone (Candida albicans; [3]): 256.0 ppm
- Minimum Inhibitory Concentration, Mixture (Candida albicans; [4]): 64.0 ppm
- Minimum Inhibitory Concentration, Compound Used Alone (Candida albicans; [5]): 341.3 ppm
- Minimum Inhibitory Concentration, Mixture (Candida albicans; [9]): 74.7 ppm
- Minimum Inhibitory Concentration, Compound Used Alone (Proteus mirabilis; [6]): > 2048.0 ppm
- Minimum Inhibitory Concentration, Mixture (Proteus mirabilis; Table 1, concentration of the component in SP+PB mixture, SP/PB ratio 1/20-1, 3 days): 288.0 ppm
- Minimum Inhibitory Concentration, Compound Used Alone (Proteus mirabilis; [8]): > 2048.0 ppm
- Minimum Inhibitory Concentration, Mixture (Proteus mirabilis; Table 2, concentration of the component in ZP+PB mixture, ZP/PB ratio 1/32, 6 days): 64.0 ppm
- Minimum Inhibitory Concentration, Compound Used Alone (Pseudomonas fluorescens; [6]): 10.7 ppm
- Minimum Inhibitory Concentration, Mixture (Pseudomonas fluorescens; Table 1, concentration of the component in SP+PB mixture, SP/PB ratio 3-10, 3 days): 1.2 ppm
- Minimum Inhibitory Concentration, Compound Used Alone (Pseudomonas fluorescens; [8]): 6.7 ppm
- Minimum Inhibitory Concentration, Mixture (Pseudomonas fluorescens; Table 2, concentration of the component in ZP+PB mixture, ZP/PB ratio 8-16, 6 days): 0.4 ppm
- Minimum Inhibitory Concentration, Compound Used Alone (Pseudomonas aeruginosa; [6]): 0.7 ppm
- Minimum Inhibitory Concentration, Mixture (Pseudomonas aeruginosa; Table 1, concentration of the component in SP+PB mixture, SP/PB ratio 163-325, 3 days): 0.3 ppm
- Minimum Inhibitory Concentration, Compound Used Alone (Pseudomonas aeruginosa; [8]): 1.0 ppm
- Minimum Inhibitory Concentration, Mixture (Pseudomonas aeruginosa; Table 2, concentration of the component in ZP+PB mixture, ZP/PB ratio 128-256, 6 days): 0.5 ppm
- Minimum Inhibitory Concentration, Compound Used Alone (Chaetomium globosium; [3]): 24.0 ppm
- Minimum Inhibitory Concentration, Mixture (Chaetomium globosium; Table 1, concentration of the component in SP+PB mixture, SP/PB ratio 1/10-1/5, 6-7 days): 16.0 ppm
- Minimum Inhibitory Concentration, Compound Used Alone (Chaetomium globosium; [5]): 85.3 ppm
- Minimum Inhibitory Concentration, Mixture (Chaetomium globosium; [10]): 37.3 ppm
- Minimum Inhibitory Concentration, Compound Used Alone (Cephalosporium sp.; [3]): 256.0 ppm
- Minimum Inhibitory Concentration, Mixture (Cephalosporium sp.; [2]): 12.0 ppm
- Minimum Inhibitory Concentration, Compound Used Alone (Cephalosporium sp.; [5]): 170.7 ppm
- Minimum Inhibitory Concentration, Mixture (Cephalosporium sp.; Table 2, concentration of the component in ZP+PB mixture, ZP/PB ratio 1/16-1/8, 7 days): 42.7 ppm
- Minimum Inhibitory Concentration, Compound Used Alone [1, 3]: 32.0 ppm
- Minimum Inhibitory Concentration, Mixture ([1]; Table 1, concentration of the component in SP+PB mixture, SP/PB ratio 1/10-1/3, 6-7 days): 26.7 ppm
- Minimum Inhibitory Concentration, Compound Used Alone [1, 5]: 53.0 ppm
- Minimum Inhibitory Concentration, Mixture ([1]; Table 2, concentration of the component in ZP+PB mixture, ZP/PB ratio 1/4-1/2, 7 days): 26.7 ppm
- Minimum Inhibitory Concentration, Compound Used Alone (Fusarium solani; [3]): 128.0 ppm
- Minimum Inhibitory Concentration, Mixture (Fusarium solani; [2]): 32.0 ppm
- Minimum Inhibitory Concentration, Compound Used Alone (Fusarium solani; [5]): 85.3 ppm
- Minimum Inhibitory Concentration, Mixture (Fusarium solani; [10]): 37.3 ppm
- Minimum Inhibitory Concentration, Compound Used Alone (Pseudomonas Stutzeri; [6]): 0.3 ppm
- Minimum Inhibitory Concentration, Mixture (Pseudomonas Stutzeri; Table 1, concentration of the component in SP+PB mixture, SP/PB ratio 325-650, 3 days): 0.1 ppm
- Minimum Inhibitory Concentration, Compound Used Alone (Pseudomonas Stutzeri; [8]): 0.3 ppm
- Minimum Inhibitory Concentration, Mixture (Pseudomonas Stutzeri; Table 2, concentration of the component in ZP+PB mixture, ZP/PB ratio 16-128, 6 days): < 0.1 ppm
- Minimum Inhibitory Concentration, Compound Used Alone (Citrobacter freundii; [6]): 0.5 ppm
- Minimum Inhibitory Concentration, Mixture (Citrobacter freundii; Table 1, concentration of the component in SP+PB mixture, SP/PB ratio 41-81, 3 days): 0.1 ppm
- Minimum Inhibitory Concentration, Compound Used Alone (Citrobacter freundii; [8]): 0.4 ppm
- Minimum Inhibitory Concentration, Mixture (Citrobacter freundii; Table 2, concentration of the component in ZP+PB mixture, ZP/PB ratio 16-64, 6 days): 0.1 ppm
